The source of these data is PMC7557804, “The Anti-Microbial Peptide (Lin-SB056-1)2-K Reduces Pro-Inflammatory Cytokine Release through Interaction with Pseudomonas aeruginosa Lipopolysaccharide” (Antibiotics, 2020).

Series [1] relates to THP-1 macrophages. Kind of series: Cytotoxicity (LDH release) towards THP-1 macrophages. Particulars: 4 h. Type of series: cell-based, Human. How it is done:
(§1) Human non-small-cell lung adenocarcinoma A549 cells (ATCC CCL-185; LGC Standards, Milan, Italy) and human monocytic THP-1 cells (ATCC TIB-202; LGC Standards) were cultured in tissue culture flasks in Dulbecco’s modified essential medium (DMEM) (Euroclone, Milan, Italy) and RPMI 1640 medium (Euroclone), respectively. Both media were supplemented with 2 mM L-glutamine (Euroclone) and 10% heat-inactivated fetal bovine serum (FBS; Euroclone). Confluent monolayers were detached from the culture flask with 0.25% trypsin/1 mM EDTA solution (Euroclone), suspended in complete culture medium and seeded into flat-bottom 96-well plates at a final density of 1 × 10^4 cells/well (A549) and 2 × 10^4 cells/well (THP-1). A549 cells were cultured for 24 h at 37 °C, 5% CO2 in order to allow adhesion and formation of semi-confluent monolayers. THP-1 cells were cultured for 3 days (37 °C, 5% CO2) in the presence of 100 nM TPA (Sigma-Aldrich, St. Louis, MO, USA) to induce their differentiation into macrophage-like cells.
The cytotoxicity of lin-SB056-1 and (lin-SB056-1)2-K towards A549 and THP-1 cells was evaluated to exclude a possible correlation between reduction in cytokine levels and decrease in cell numbers. To this end, culture supernatants of cells stimulated with LPS in the presence of the peptides were employed to quantify the amount of cytoplasmic LDH released by dead cells. Cells incubated in culture medium alone or in the presence of LPS served as an indication of spontaneous cell death (cell viability controls), while cells treated with a commercial lysis buffer (Pierce LDH cytotoxicity assay kit, Thermo Fisher Scientific) were used as cell death control (100% cell lysis). The enzymatic activity of LDH in cell supernatants was measured using the Pierce LDH cytotoxicity assay kit (Thermo Fisher Scientific) following manufacturer’s instructions. The cytotoxic effect was determined as follows: cytotoxicity (%) = [(LDH activity of A/LDH activity of B) × 100], where A represents peptide-treated or untreated cells (both in the presence and absence of LPS), and B corresponds to the cell lysis control.
On the technique in general: Release of lactate dehydrogenase indicates damage to the cell membrane.

The next series has as its system A549 cells. Kind of series: Cytokine production by A549 cells stimulated with whole P. aeruginosa PAO1. Type of series: cell-based, Human. The settings on record: 4 h, 37 °C, 5% CO2. As to the method:
The reference strain P. aeruginosa PAO1 (ATCC 15692) was used in this study. For the preparation of stock cultures, bacteria were grown in Tryptone Soy Broth (TSB; Thermo Fisher Scientific, Waltham, MA, USA) until mid-exponential phase, then aliquoted and stored at −80 °C. For the preparation of the inoculum, a volume of 50 μL of the frozen culture was inoculated in 5 mL of TSB, and subsequently incubated for 18 h at 37 °C. […]
In some experiments, the ability of (lin-SB056-1)2-K to inhibit cytokine production by A549 cells stimulated with whole P. aeruginosa (PAO1 strain) was assessed. […]
(§2) Different pro-inflammatory cytokines (i.e., IL-1β, IL-6, IL-8 and TNF-α) were quantified in cell culture supernatants through a bead-based multiplex immunoassay (LEGENDplex multi-analyte flow assay kit; BioLegend, San Diego, CA, USA) following manufacturer’s instructions. […] Following consecutive washing steps, the beads were resuspended in the LEGENDplex wash buffer and the samples were analyzed by flow cytometry (BD Accuri C6 flow cytometer; BD Biosciences, Mountain View, CA, United States). Data were acquired with the BD Accuri C6 software (BD Biosciences) (300 events per analyte) and analyzed with the LEGENDplex software (BioLegend). […]

The subject of series [2] is reference strain and CF lung isolates of P. aeruginosa. Particulars: cell culture medium; cited from earlier work. The source says:
In our previous work, we explored different strategies to enhance the anti-bacterial and anti-biofilm activity of the semi-synthetic peptide lin-SB056-1 [12] in physiologically relevant, host-mimicking conditions that are known to interfere with the stability and efficacy of AMPs.

Series [3] deals with THP-1 macrophages. Kind of series: LPS-induced cytokine production by THP-1 macrophages. Type of series: cell-based, Human. The settings on record: P. aeruginosa LPS 10 ng/mL, 4 h, 37 °C, 5% CO2. How it is done: as §1
The anti-inflammatory potential of lin-SB056-1 and (lin-SB056-1)2-K was assessed by evaluating their ability to reduce LPS-induced production of pro-inflammatory cytokines by A549 cells and THP-1 macrophages. […] Following incubation, cell culture supernatants were collected, filter sterilized (0.22 µm) and employed for the quantification of cytokines and the assessment of cell viability.
as §2

The mark [4] stands for this setting: 9.6 μM peptide, vs LPS-stimulated peptide-untreated control, statistically significant, mean of three independent experiments.

In the case of “[KWKIRVRLSA]2-K [(lin-SB056-1)2-K, dendrimeric derivative of lin-SB056-1]”, the “cell death (LDH release), with LPS” value with THP-1 macrophages [1] (LPS-stimulated THP-1 macrophages, up to 19.25 μM (highest tested), 37 °C, 5% CO2, relative to cell lysis control, at least three independent experiments) is “less than 5%”. In addition, in the series on THP-1 macrophages [1] (LPS-stimulated THP-1 macrophages, up to 19.25 μM, LDH release), the “toxicity” value was “no detectable toxicity”. The “cell death (LDH release), co-cultured with peptide and LPS” value in the series on THP-1 macrophages [1] (THP-1 macrophages, 19.25 μM peptide with LPS, 37 °C, 5% CO2, mean of at least three independent experiments) is given as 5%. The “cell death (LDH release), in the absence of LPS” value with THP-1 macrophages [1] (THP-1 macrophages, 19.25 μM peptide, no LPS, 37 °C, 5% CO2, mean of at least three independent experiments) is reported as 14%. Besides, in the series with A549 cells (9.6 μM peptide, PAO1 fixed with 4% paraformaldehyde, 5 × 10^6 CFU/well, statistically significant, mean of at least three independent experiments), the “reduction in IL-6 levels” value is on record as “up to 70%”. Also, in the series on A549 cells (9.6 and 19.25 μM peptide, fixed PAO1 5 × 10^6 CFU/well), the “effect on IL-8 release” value is “no evident effect”. Further, in series [2], the “MIC (Minimal Inhibitory Concentration)” value is reported as 2.4 to 9.6 µM and the “fold lower MIC compared to lin-SB056-1” value is listed as 4 to 16 fold. For the same substance, in the series on THP-1 macrophages [3] (setting [4]), the “reduction in secretion of IL-1β” value is given as 80% and the “reduction in secretion of IL-6” value came out at 60%. In the series with THP-1 macrophages [3] (three independent experiments), the “effect on TNF-α levels” value is listed as “a trend in decreasing TNF-α levels, no statistical significance was reached”.
